In experiment [1] the test system is Arabidopsis thaliana root. Nature of the experiment: Root-shortening assay (root length). Type of experiment: in vivo. The following applies: for root-shortening activity: 1 μM peptide, 14-day-old root length, Fig. 1b, n=13-20; for CLV3-type activity: root 1 µM (stele 10 µM), Supplementary Fig. 8. As for the experimental part:
(§1) For root-length measurement, plants were germinated and grown vertically on half-strength Murashige and Skoog (MS) medium supplemented with 1% sucrose and peptide/control solution at 22 °C under continuous light. To observe the RAM, 4-day-old roots were excised and mounted in clearing solution (chloral hydrate/glycerol/water=8:1:2) before imaging with light microscope (Axio Imager.A2, Zeiss).

Experiment [2] concerns root apical meristem (RAM). Nature of the experiment: Root apical meristem (RAM) morphology. Type of experiment: in vivo, Arabidopsis thaliana. The following applies: 1 μM peptide, 4-day-old, wild type, Fig. 1c. As to the method: as §1
The next experiment has as its system hypocotyl stele. In words: Stele-thickening assay (hypocotyl stele width). In kind it is in vivo, Arabidopsis thaliana. The following applies: for effect on stele radial growth / stele width: 10 μM peptide, liquid medium, 10-day-old hypocotyl, Fig. 1e,f. As for the experimental part: (§2) For the observation of stele and leaf vein, seeds were germinated and cultured with shaking at 110 r.p.m. at 22 °C under continuous light in liquid half-strength MS medium supplemented with 1% sucrose and peptide/control solution. 10-day-old seedlings were fixed in a 1:3 mixture of acetic acid/ethanol, washed with water and mounted in clearing solution (chloral hydrate/glycerol/water=8:1:2) before imaging with a light microscope (Axio Imager.A2, Zeiss).

Experiment [3] concerns Arabidopsis thaliana root. The conditions noted are these: cited from earlier work. The text has this: CLV3-like activities have also been reported in other 18 CLE peptides. […] We analysed the structure–activity relationship between CLV3 (Fig. 1a, peptide 1) and CLE25 (Fig. 1a, peptide 2) by swapping the residues at 2nd, 5th, 10th and 12th positions (Fig. 1a, peptide 3–16). […] Although all the chimera peptides shortened the root, only the peptide 15, hereafter call ...

Experiment [4] addresses T1, CLV1 ectodomain (CLV1-HT) (Arabidopsis thaliana, UniProt Q9SYQ8).
T1 construct: applied it to the membrane fractions containing receptor ectodomains expressed in tobacco cells; made in house; host or cells: tobacco BY-2 cells (microsomal fraction)
T1 sequence (Q9SYQ8 25-638 limits assumed): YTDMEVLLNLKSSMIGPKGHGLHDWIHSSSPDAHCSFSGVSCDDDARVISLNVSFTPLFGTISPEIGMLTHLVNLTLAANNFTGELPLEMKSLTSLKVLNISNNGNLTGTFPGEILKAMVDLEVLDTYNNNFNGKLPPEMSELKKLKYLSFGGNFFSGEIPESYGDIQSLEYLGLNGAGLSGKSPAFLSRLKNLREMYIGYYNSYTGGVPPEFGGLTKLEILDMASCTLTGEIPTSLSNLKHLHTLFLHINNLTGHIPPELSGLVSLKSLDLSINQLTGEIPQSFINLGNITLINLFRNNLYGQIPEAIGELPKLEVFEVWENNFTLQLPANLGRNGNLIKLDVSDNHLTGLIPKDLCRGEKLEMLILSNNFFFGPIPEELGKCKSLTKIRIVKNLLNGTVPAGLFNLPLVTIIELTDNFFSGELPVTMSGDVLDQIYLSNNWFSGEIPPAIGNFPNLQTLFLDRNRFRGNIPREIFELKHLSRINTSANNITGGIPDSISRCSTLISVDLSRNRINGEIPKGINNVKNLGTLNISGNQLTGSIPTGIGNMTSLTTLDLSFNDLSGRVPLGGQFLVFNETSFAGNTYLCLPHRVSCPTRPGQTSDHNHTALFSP
Nature of the experiment: Photo-affinity labelling with [125I]ASA-KIN, CLV1. In kind it is binding. As for the experimental part:
(§3) Aliquots (1,000 μg) of microsomal proteins for Halo-tagged receptors (CLV1-HT[10], TDR-HT[7] and CLV2-HT[20]) from tobacco BY-2 cells were suspended in 250 μl binding buffer (50 mM MES-KOH pH 5.5 with 100 mM sucrose) containing 30 nM [^125I]ASA-KIN in the presence or absence of various concentrations of competitor peptides indicated in corresponding figure legends and then incubated for 10 min on ice. The bound and free [^125I]ASA-KIN were separated by layering the reaction mixture onto 900 μl of wash buffer (50 mM MES-KOH pH 5.5 with 500 mM sucrose) and centrifuging for 5 min at 100,000 g at 4 °C. After discarding the supernatant, the pellet was irradiated on ice for 20 min with an ultraviolet lamp (model ENF-260C/J (365 nm), Spectronics Co. Ltd) at a distance of 1 cm. The cross-linked membrane proteins were solubilized, immunoprecipitated by using HaloTag antibody and separated by SDS–PAGE on a 7.5% acrylamide gel. The dried gels were exposed to the bio-imaging plate (MS 2,025, Fujifilm) for 2 days at room temperature and the plates were analysed using a bio-imaging analyser (Typhoon FLA 900, GE).

Experiment [5] concerns shoot apical meristem (SAM). Nature of the experiment: Shoot apical meristem (SAM) morphology in sections. In kind it is in vivo, Arabidopsis thaliana. The conditions noted are these: 10 μM peptide, 10-day treatment. As to the method:
To observe the SAM, plants were germinated and grown at 22 °C under continuous light on half-strength MS medium supplemented with 1% sucrose and 10 μM peptide/control solution. To make sections, roots and leaves were cut off from 10-day-old seedlings, then fixed in FAA solution (50% ethanol:10% formalin:5% acetic acid in water) and embedded into Technovit 7,100 resin according to the manufacturer's instructions (Heraeus Kulzer). Four-micrometre-thin sections were made using a microtome (RM2235, Leica), stained with 0.05% toluidine blue and mounted in Entellan New (Merck) before observation with a light microscope (Axio Imager.A2, Zeiss).

The subject of the next experiment is leaf vein xylem strands. Nature of the experiment: Leaf vein xylem strand observation. Type of experiment: in vivo, Arabidopsis thaliana. The conditions noted are these: 10 μM peptide, 10-day-old clv2-101, Fig. 2c. As to the method: as §2
Another experiment addresses T2, TDR ectodomain (TDR-HT) (Arabidopsis thaliana, UniProt Q9FII5).
T2 construct: applied it to the membrane fractions containing receptor ectodomains expressed in tobacco cells; made in house; host or cells: tobacco BY-2 cells (microsomal fraction)
T2 sequence (Q9FII5 30-652 limits assumed): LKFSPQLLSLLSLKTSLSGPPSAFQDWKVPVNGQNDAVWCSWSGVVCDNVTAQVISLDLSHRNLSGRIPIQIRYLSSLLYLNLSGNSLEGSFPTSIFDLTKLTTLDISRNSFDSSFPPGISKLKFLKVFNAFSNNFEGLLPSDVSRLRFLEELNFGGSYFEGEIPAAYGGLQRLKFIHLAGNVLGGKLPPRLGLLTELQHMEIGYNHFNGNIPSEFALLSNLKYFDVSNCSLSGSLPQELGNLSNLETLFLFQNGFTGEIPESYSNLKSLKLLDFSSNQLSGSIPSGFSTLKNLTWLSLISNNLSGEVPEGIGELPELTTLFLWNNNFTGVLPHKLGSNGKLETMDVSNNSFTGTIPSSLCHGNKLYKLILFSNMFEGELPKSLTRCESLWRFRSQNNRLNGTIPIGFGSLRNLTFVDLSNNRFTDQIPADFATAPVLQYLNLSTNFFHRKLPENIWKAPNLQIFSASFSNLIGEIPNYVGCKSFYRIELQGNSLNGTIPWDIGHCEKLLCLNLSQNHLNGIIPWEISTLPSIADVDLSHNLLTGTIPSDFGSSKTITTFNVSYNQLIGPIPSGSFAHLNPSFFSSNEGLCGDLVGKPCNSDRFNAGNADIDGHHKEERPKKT
In words: Photo-affinity labelling with [125I]ASA-KIN, TDR. In kind it is binding. As for the experimental part:
as §3

The target of experiment [6] is T3, CLV2 ectodomain (CLV2-HT) (Arabidopsis thaliana, UniProt O80809).
T3 construct: made in house; host or cells: tobacco BY-2 cells (microsomal fraction)
T3 sequence (O80809 26-686 limits assumed): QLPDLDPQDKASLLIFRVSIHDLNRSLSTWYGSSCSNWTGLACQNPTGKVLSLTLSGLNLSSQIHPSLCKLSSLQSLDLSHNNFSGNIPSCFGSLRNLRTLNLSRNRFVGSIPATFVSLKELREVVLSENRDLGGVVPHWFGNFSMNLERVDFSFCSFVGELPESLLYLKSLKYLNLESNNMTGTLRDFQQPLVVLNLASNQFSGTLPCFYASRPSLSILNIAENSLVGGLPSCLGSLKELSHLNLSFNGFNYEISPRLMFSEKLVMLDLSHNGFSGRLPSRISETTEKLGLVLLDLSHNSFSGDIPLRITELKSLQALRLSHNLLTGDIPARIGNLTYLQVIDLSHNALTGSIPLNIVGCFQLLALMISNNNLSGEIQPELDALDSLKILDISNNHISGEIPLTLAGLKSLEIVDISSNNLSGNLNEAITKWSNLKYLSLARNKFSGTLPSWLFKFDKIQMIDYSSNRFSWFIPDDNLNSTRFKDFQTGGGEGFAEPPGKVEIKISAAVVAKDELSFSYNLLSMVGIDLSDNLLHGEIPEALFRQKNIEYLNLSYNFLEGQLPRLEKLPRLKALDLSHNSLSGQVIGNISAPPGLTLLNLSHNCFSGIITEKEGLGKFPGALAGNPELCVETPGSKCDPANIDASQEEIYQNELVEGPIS
Nature of the experiment: Photo-affinity labelling with [125I]ASA-KIN, CLV2. Type of experiment: binding. The following applies: 30 nM [125I]ASA-KIN probe, same condition, Supplementary Fig. 6. As to the method:
as §3

The mark [7] stands for this setting: wild type, Supplementary Fig. 1.
The mark [8] stands for this setting: 30 nM probe, MES-KOH pH 5.5, 10 min on ice, tobacco BY-2 microsomes, Fig. 3c.
Where [9] appears, read: various concentrations of KIN, Supplementary Fig. 7.

Here are results for 5 substances from PMC5303819, “Cryptic bioactivity capacitated by synthetic hybrid plant peptides” (Nature Communications, 2017).

Consider “CLE25: endogenously encoded CLE peptide sequence, CLV3-type, synthesized without hydroxyprolines (RKVPNGPDPIHN; CLE25p no hydroxyprolines; UniProt Q8LFL4 58-69, looked up)”, for which, in experiment [1] (wild type), the root-shortening activity entry is on record as “showed root-shortening activities”. In addition, the “concentration at which bioactivity starts in root shortening assay” value in experiment [1] (setting [7]) is recorded as ~ 100 nM. Also, the “size of the root apical meristem (RAM)” value in [2] is given as “reduced”. Also, the “effect on stele radial growth / stele width” value in the experiment on hypocotyl stele (wild type, 2b) was “reduce the thickening of vascular tissues in the hypocotyl”. Further, the “effectiveness in the root-shortening assay” value in experiment [3] is on record as “more effective than CLV3”.
With “CLV3-S^11th: CLV3 with H-to-S substitution at the 11th position (RTVPSGPDPLSHH; MCLV3; UniProt Q9XF04 70-82, looked up, variant H11S)”, the CLV3-type activity entry in experiment [1] was “neither CLV3 nor CLE41 activity”; in experiment [1] (listed as peptide 24), “even weaker than KIN-1δ”. In the experiment with hypocotyl stele (stele 10 µM, Supplementary Fig. 8), the CLE41-type activity entry is “neither CLV3 nor CLE41 activity”. The “interaction with CLV1 in competitive displacement assay with [125I]ASA-KIN” value in experiment [4] (Supplementary Fig. 10) was “retained the interaction with CLV1”.
Regarding “CLV3: endogenously encoded 12 amino-acid CLE peptide, chemically synthesized without hydroxyprolines”, in [1] (wild type), the root-shortening activity result is listed as “showed root-shortening activities”. For the same substance, the “response of clv2-101 mutant, root length and RAM size” value in [1] (clv2-101 mutant, Supplementary Fig. 3a,b) was “resistant”. Besides, the “dose-response of root growth attenuation” value in experiment [1] (wild type, 1 nM-1 µM, Supplementary Fig. 1) was “attenuates the root growth in a lower concentration than CLE25 and KIN”. Also, the “concentration at which bioactivity starts in root shortening assay” value in experiment [1] (setting [7]) is listed as ~ 10 nM. Moreover, the “size of the root apical meristem (RAM)” value in experiment [2] was “reduced”. In experiment [5] (loss-of-function mutants, Fig. 2a), the “SAM of clv1-101 and clv2-101 mutants after treatment” value is “maintained”. The “effect on SAM” value in experiment [5] (wild type, Fig. 1d) was “disappeared”. The “response of clv2-101 mutant to inhibitory activity on stele width” value with hypocotyl stele (100 nM peptide, clv2-101 mutant, Fig. 2b) is “insensitive”. Further, in the experiment on hypocotyl stele (100 nM peptide, wild type, 10-day-old, Fig. 1g, 2b), the “effect on stele width at 100 nM” value is given as “reduced the stele width”. Besides, the “effect on stele radial growth / stele width” value in the experiment on hypocotyl stele (wild type, 2b) was “reduced radial growth of the stele”. Besides, in the experiment on hypocotyl stele (wild type, 10-day-old, dose-response Fig. 1g), the “lowest concentration with negative effect on stele growth” value is 30 nM. For the same substance, the “effect on xylem differentiation in leaf vein” value in the experiment on leaf vein xylem strands was “not observed”. For the same substance, the “competition of [125I]ASA-KIN labelling of CLV1” value in experiment [4] (1,000-fold excess non-radio-labelled peptide, Fig. 3c) is “competitively inhibited”.
Turning to [(4-azidosalicyl)Lys^2]KIN [ASA-KIN], in [1] (10 nM-1 µM, Supplementary Fig. 5b), the “bioactivity compared with KIN, root shortening” value was “reduced compared with the original KIN”. The “bioactivity compared with KIN, hypocotyl stele thickening” value in the experiment on hypocotyl stele (Supplementary Fig. 5c) is “reduced compared with the original KIN”.
For “[^125I]-radiolabelled [(4-azidosalicyl)Lys^2]KIN [[^125I]ASA-KIN]”, the “photo-affinity labelling of CLV1 ectodomain” value in experiment [4] (setting [8]) is listed as “covalently labelled”. Moreover, the “competitive displacement of probe binding to CLV1 by KIN” value in experiment [4] (setting [9]) is “binds to these receptors in a similar manner”. Also, the “photo-affinity labelling of TDR ectodomain” value on TDR ectodomain (TDR-HT) (setting [8]) is “covalently labelled”. For the same substance, the “competitive displacement of probe binding to TDR by KIN” value on TDR ectodomain (TDR-HT) (setting [9]) is on record as “binds to these receptors in a similar manner”. Further, in [6], the “interaction with CLV2 ectodomain” value is on record as “no interaction was detected”.
